# Assay results: ChEMBL document CHEMBL1287720, “Inhibition of human neuraminidase 3 (NEU3) by C9-triazole derivatives of 2,3-didehydro-N-acetyl-neuraminic acid” (Bioorg Med Chem Lett, 2010); call rule not given here
# Target: T1, Sialidase-3 (Homo sapiens, UniProt Q9UQ49)
# T1 sequence (Q9UQ49 whole entry): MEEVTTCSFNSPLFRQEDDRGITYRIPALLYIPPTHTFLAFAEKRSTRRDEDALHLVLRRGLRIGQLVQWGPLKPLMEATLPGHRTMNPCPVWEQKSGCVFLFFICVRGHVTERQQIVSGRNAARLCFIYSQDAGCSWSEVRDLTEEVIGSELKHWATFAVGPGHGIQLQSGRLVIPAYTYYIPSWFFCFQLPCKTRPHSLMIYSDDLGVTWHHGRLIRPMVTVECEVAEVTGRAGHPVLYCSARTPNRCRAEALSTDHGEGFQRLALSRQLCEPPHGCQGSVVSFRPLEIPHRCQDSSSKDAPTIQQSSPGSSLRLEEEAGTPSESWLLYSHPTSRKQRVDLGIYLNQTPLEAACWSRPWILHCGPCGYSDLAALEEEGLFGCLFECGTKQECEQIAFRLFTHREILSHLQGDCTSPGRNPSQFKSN
# Assay: Inhibition of human neuraminidase 3 assessed as inhibition of 4-methylumbelliferyl-alpha-D-N-acetylneuraminic acid hydrolysis
row,IC50 [µM],Compound
1,320,CC(=O)N[C@H]1[C@H]([C@H](O)[C@H](O)CNC(=O)c2ccccc2)OC(C(=O)O)=C[C@@H]1O
2,> 1000,CC(=O)NC[C@@H](O)[C@@H](O)[C@@H]1OC(C(=O)O)=C[C@H](O)[C@H]1NC(C)=O
3,43,CC(=O)N[C@H]1[C@H]([C@H](O)[C@H](O)CO)OC(C(=O)O)=C[C@@H]1O [NEU5AC2EN]

# Target: T1, Sialidase-3
# Assay: Inhibition of human neuraminidase 3 assessed as inhibition of GM3 hydrolysis
row,Compound,IC50 [mM]
1,CCOC(=O)C1=C[C@@H](OC(CC)CC)[C@H](NC(C)=O)[C@@H](N)C1 [OSELTAMIVIR],> 10

# Target: T1, Sialidase-3
# Assay: Inhibition of human neuraminidase 3
row,IC50,Compound
1,Not Active,CC(=O)N[C@H]1[C@H]([C@H](O)[C@H](O)CO)O[C@@](O)(C(=O)O)C[C@@H]1O

# Target: T1, Sialidase-3
# Assay: not given
row,IC50 [µM],Compound
1,70,CC(=O)N[C@H]1[C@H]([C@H](O)[C@H](O)CN=[N+]=[N-])OC(C(=O)O)=C[C@@H]1O
2,20,CC(=O)N[C@H]1[C@H]([C@H](O)[C@H](O)Cn2cc(-c3ccccc3)nn2)OC(C(=O)O)=C[C@@H]1O
3,23,CCCCCCc1cn(C[C@@H](O)[C@@H](O)[C@@H]2OC(C(=O)O)=C[C@H](O)[C@H]2NC(C)=O)nn1
4,300,CCOc1cn(C[C@@H](O)[C@@H](O)[C@@H]2OC(C(=O)O)=C[C@H](O)[C@H]2NC(C)=O)nn1
5,130,CCOC(OCC)c1cn(C[C@@H](O)[C@@H](O)[C@@H]2OC(C(=O)O)=C[C@H](O)[C@H]2NC(C)=O)nn1
6,45,CC(=O)N[C@H]1[C@H]([C@H](O)[C@H](O)Cn2cc(COc3ccccc3)nn2)OC(C(=O)O)=C[C@@H]1O
7,300,CC(=O)N[C@H]1[C@H]([C@H](O)[C@H](O)Cn2cc(CO)nn2)OC(C(=O)O)=C[C@@H]1O
8,400,CC(=O)N[C@H]1[C@H]([C@H](O)[C@H](O)Cn2cc(CCO)nn2)OC(C(=O)O)=C[C@@H]1O
9,500,CC(=O)N[C@H]1[C@H]([C@H](O)[C@H](O)Cn2cc(CCCO)nn2)OC(C(=O)O)=C[C@@H]1O
10,300,CC(=O)N[C@H]1[C@H]([C@H](O)[C@H](O)Cn2cc(C(C)(C)O)nn2)OC(C(=O)O)=C[C@@H]1O
11,21,[N-]=[N+]=NCC(=O)N[C@H]1[C@H]([C@H](O)[C@H](O)CO)OC(C(=O)O)=C[C@@H]1O
12,> 500,O=C(Cn1cc(-c2ccccc2)nn1)N[C@H]1[C@H]([C@H](O)[C@H](O)CO)OC(C(=O)O)=C[C@@H]1O
13,> 500,CCCCCCc1cn(CC(=O)N[C@H]2[C@H]([C@H](O)[C@H](O)CO)OC(C(=O)O)=C[C@@H]2O)nn1
14,> 500,CCOc1cn(CC(=O)N[C@H]2[C@H]([C@H](O)[C@H](O)CO)OC(C(=O)O)=C[C@@H]2O)nn1
15,> 500,CCOC(OCC)c1cn(CC(=O)N[C@H]2[C@H]([C@H](O)[C@H](O)CO)OC(C(=O)O)=C[C@@H]2O)nn1
16,> 500,O=C(Cn1cc(COc2ccccc2)nn1)N[C@H]1[C@H]([C@H](O)[C@H](O)CO)OC(C(=O)O)=C[C@@H]1O
17,> 500,O=C(Cn1cc(CO)nn1)N[C@H]1[C@H]([C@H](O)[C@H](O)CO)OC(C(=O)O)=C[C@@H]1O
18,> 500,O=C(Cn1cc(CCO)nn1)N[C@H]1[C@H]([C@H](O)[C@H](O)CO)OC(C(=O)O)=C[C@@H]1O
19,> 500,O=C(Cn1cc(CCCO)nn1)N[C@H]1[C@H]([C@H](O)[C@H](O)CO)OC(C(=O)O)=C[C@@H]1O
20,> 500,CC(C)(O)c1cn(CC(=O)N[C@H]2[C@H]([C@H](O)[C@H](O)CO)OC(C(=O)O)=C[C@@H]2O)nn1
21,48,CC(=O)N[C@H]1[C@H]([C@H](O)[C@H](O)CO)OC(C(=O)O)=C[C@@H]1O [NEU5AC2EN]
